Measurements: publication PMC2935964, “Selective delivery of 2-hydroxy APA to Trypanosoma brucei using the melamine motif” (Bioorganic & Medicinal Chemistry Letters, 2010)
Read-outs that look alike come from different tables or passages of the source.

Tests used:
rat liver ODC = tested on: rat liver ODC; design: method as in PMID 1573631; conditions: previously reported; read-out: inhibition of rat liver ODC; cited from earlier work
T. brucei ODC = T. brucei ODC (Trypanosoma brucei brucei, UniProt P07805); experiment: Inhibition of T. brucei ODC (previously described assay); format: biochemical
Sequence of T. brucei ODC (P07805 whole entry): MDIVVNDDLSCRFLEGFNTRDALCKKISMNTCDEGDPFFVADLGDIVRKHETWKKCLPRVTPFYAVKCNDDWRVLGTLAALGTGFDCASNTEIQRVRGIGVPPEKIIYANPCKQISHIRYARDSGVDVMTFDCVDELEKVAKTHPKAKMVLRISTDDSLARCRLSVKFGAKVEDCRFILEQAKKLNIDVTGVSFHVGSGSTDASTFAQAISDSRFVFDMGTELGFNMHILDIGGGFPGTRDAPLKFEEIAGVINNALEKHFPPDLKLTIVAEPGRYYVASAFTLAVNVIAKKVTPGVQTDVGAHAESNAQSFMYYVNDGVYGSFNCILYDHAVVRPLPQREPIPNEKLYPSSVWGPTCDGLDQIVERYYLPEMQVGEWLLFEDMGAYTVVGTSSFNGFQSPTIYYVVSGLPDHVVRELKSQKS

[1] = tested on: T. brucei brucei wild type; experiment: In vitro activity against T. brucei brucei wild type (P2 transporter proficient); format: cell-based, Trypanosoma brucei brucei; conditions: for EC50: Trypanosoma brucei, read-out: T. brucei brucei EC50 Wild type
Protocol: (§1) Compounds were tested against two T. brucei lines in vitro. The T. brucei brucei wild type that is proficient in the P2 transporter and a TbAT1 knockout line lacking the P2 transporter. This TbAT1 knockout line has been described previously.[27]

[2] = tested on: T. brucei brucei TbAT1 KO; experiment: In vitro activity against TbAT1 knockout line lacking the P2 transporter; format: cell-based, Trypanosoma brucei brucei; conditions: for EC50: Trypanosoma brucei, read-out: T. brucei brucei EC50 TbAT1 KO; for Resistance factor (EC50 KO/EC50 w.t.): ratio TbAT1 KO vs wild type
Protocol: as §1

[3] = wild type, P2 proficient, NA = no activity at 100 μM

NCC(O)CON (centres unmarked) [Compound 7, 2-hydroxy APA]
IC50 (rat liver ODC): 0.039 µM | IC50 (T. brucei ODC): 0.048 ± 0.009 µM | EC50 [1]: > 100 µM

Cl.Cl.NCC(CON)OC(=O)CCCNc1nc(N)nc(N)n1 (centres unmarked) [Compound 11d]
EC50 [1, 3]: 113 µM | EC50 [2]: 288 µM | Resistance factor (EC50 KO/EC50 w.t.) [2]: 2.5

CC(Nc1nc(N)nc(N)n1)C(=O)OC(CN)CON.Cl.Cl (centres unmarked) [Compound 11c]
melting point: 160 to 180 °C | EC50 [1, 3]: 29 µM | Resistance factor (EC50 KO/EC50 w.t.) [2]: >3

Cl.Cl.NCC(CON)OC(=O)CNc1nc(N)nc(N)n1 (centres unmarked) [Compound 11a]
melting point: 150 to 170 °C | EC50 [1, 3]: > 100 µM

Cl.NCCCON [Compound 3, 3-(aminooxy)propanamine, reference compound]
IC50 (rat liver ODC): 0.035 µM | IC50 (T. brucei ODC): 0.022 ± 0.007 µM | EC50 [1]: > 100 µM | T. brucei brucei EC50 Wild type [1, 3]: inactive

Cl.Cl.NCC(CON)OC(=O)CCNc1nc(N)nc(N)n1 (centres unmarked) [Compound 11b]
melting point: 150 to 170 °C | EC50 [1, 3]: > 100 µM

CC(C)(C)OC(=O)NCC(CONC(=O)OC(C)(C)C)OC(=O)CCNc1nc(N)nc(N)n1 (centres unmarked) [Compound 10b]
EC50 [1]: 77 µM | EC50 [2]: 40 µM | Resistance factor (EC50 KO/EC50 w.t.) [2]: 0.5
